Test results as given in PubChem BioAssay (NCI).
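Method: 48-hour compound exposure of cells in 96-well plates, five concentrations, linear interpolation of endpoints. The concentration for full growth arrest is given as TGI.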

How the values were obtained:
Assay in all cases: growth of human tumour cells (NCI), 48 h
UACC-257 melanoma = system: UACC-257 melanoma
MOLT-4 leukemia = system: MOLT-4 leukemia
MDA-MB-231 breast = system: MDA-MB-231 breast
SW-620 colon = system: SW-620 colon
HCT-15 colon = system: HCT-15 colon
DU-145 prostate = system: DU-145 prostate
MCF7 breast = system: MCF7 breast
LOX IMVI melanoma = system: LOX IMVI melanoma
COLO 205 colon = system: COLO 205 colon
SK-MEL-2 melanoma = system: SK-MEL-2 melanoma
M14 melanoma = system: M14 melanoma
EKVX NSCLC = system: EKVX NSCLC
OVCAR-5 ovarian = system: OVCAR-5 ovarian
TK-10 renal = system: TK-10 renal
UO-31 renal = system: UO-31 renal
MALME-3M melanoma = system: MALME-3M melanoma
HOP-92 NSCLC = system: HOP-92 NSCLC
IGROV1 ovarian = system: IGROV1 ovarian
KM12 colon = system: KM12 colon
SNB-75 CNS = system: SNB-75 CNS
HCC-2998 colon = system: HCC-2998 colon
NCI-H522 lung = system: NCI-H522 lung
K-562 leukemia = system: K-562 leukemia
BT-549 breast = system: BT-549 breast
CAKI-1 renal = system: CAKI-1 renal
RXF 393 renal = system: RXF 393 renal
MDA-MB-435 = system: MDA-MB-435
SF-539 CNS = system: SF-539 CNS
HL-60(TB) leukemia = system: HL-60(TB) leukemia
OVCAR-8 ovarian = system: OVCAR-8 ovarian
786-0 renal = system: 786-0 renal
CCRF-CEM leukemia = system: CCRF-CEM leukemia
SR leukemia = system: SR leukemia
A549 NSCLC = system: A549 NSCLC
SF-295 CNS = system: SF-295 CNS
OVCAR-3 ovarian = system: OVCAR-3 ovarian
SN12C renal = system: SN12C renal
U251 CNS = system: U251 CNS
UACC-62 melanoma = system: UACC-62 melanoma
ACHN renal = system: ACHN renal
SNB-19 CNS = system: SNB-19 CNS
RPMI-8226 leukemia = system: RPMI-8226 leukemia
NCI-H23 lung = system: NCI-H23 lung
PC-3 prostate = system: PC-3 prostate
NCI-H226 lung = system: NCI-H226 lung
SK-MEL-5 melanoma = system: SK-MEL-5 melanoma
HCT-116 colon = system: HCT-116 colon
SK-OV-3 ovarian = system: SK-OV-3 ovarian
NCI/ADR-RES ovarian = system: NCI/ADR-RES ovarian
A498 renal = system: A498 renal
MDA-N = system: MDA-N
OVCAR-4 ovarian = system: OVCAR-4 ovarian

Compound: CC(=O)C1=CN=C2C(=O)N(c3ccccc3)N(C)C12C (configuration not stated)
- TGI (UACC-257 melanoma): > 100 µM
- TGI (MOLT-4 leukemia): > 100 µM
- TGI (MDA-MB-231 breast): > 100 µM
- TGI (SW-620 colon): > 100 µM
- TGI (HCT-15 colon): > 100 µM
- TGI (DU-145 prostate): > 100 µM
- TGI (MCF7 breast): > 100 µM
- TGI (LOX IMVI melanoma): > 100 µM
- TGI (COLO 205 colon): > 100 µM
- TGI (SK-MEL-2 melanoma): > 100 µM
- TGI (M14 melanoma): > 100 µM
- TGI (EKVX NSCLC): > 100 µM
- TGI (OVCAR-5 ovarian): > 100 µM
- TGI (TK-10 renal): > 100 µM
- TGI (UO-31 renal): > 100 µM
- TGI (MALME-3M melanoma): > 100 µM
- TGI (HOP-92 NSCLC): > 100 µM
- TGI (IGROV1 ovarian): > 100 µM
- TGI (KM12 colon): 46.8 µM
- TGI (SNB-75 CNS): > 100 µM
- TGI (HCC-2998 colon): > 100 µM
- TGI (NCI-H522 lung): > 100 µM
- TGI (K-562 leukemia): > 100 µM
- TGI (BT-549 breast): > 100 µM
- TGI (CAKI-1 renal): > 100 µM
- TGI (RXF 393 renal): > 100 µM
- TGI (MDA-MB-435): > 100 µM
- TGI (SF-539 CNS): > 100 µM
- TGI (HL-60(TB) leukemia): > 100 µM
- TGI (OVCAR-8 ovarian): > 100 µM
- TGI (786-0 renal): > 100 µM
- TGI (CCRF-CEM leukemia): > 100 µM
- TGI (SR leukemia): > 100 µM
- TGI (A549 NSCLC): > 100 µM
- TGI (SF-295 CNS): > 100 µM
- TGI (OVCAR-3 ovarian): > 100 µM
- TGI (SN12C renal): > 100 µM
- TGI (U251 CNS): > 100 µM
- TGI (UACC-62 melanoma): > 100 µM
- TGI (ACHN renal): > 100 µM
- TGI (SNB-19 CNS): > 100 µM
- TGI (RPMI-8226 leukemia): > 100 µM
- TGI (NCI-H23 lung): > 100 µM
- TGI (PC-3 prostate): > 100 µM
- TGI (NCI-H226 lung): > 100 µM
- TGI (SK-MEL-5 melanoma): > 100 µM
- TGI (HCT-116 colon): > 100 µM
- TGI (SK-OV-3 ovarian): > 100 µM
- TGI (NCI/ADR-RES ovarian): > 100 µM
- TGI (A498 renal): > 100 µM
- TGI (MDA-N): > 100 µM
- TGI (OVCAR-4 ovarian): > 100 µM
